Assay [1] concerns the target T1, hPR (Homo sapiens, UniProt P06401).
T1 sequence (P06401 1-933): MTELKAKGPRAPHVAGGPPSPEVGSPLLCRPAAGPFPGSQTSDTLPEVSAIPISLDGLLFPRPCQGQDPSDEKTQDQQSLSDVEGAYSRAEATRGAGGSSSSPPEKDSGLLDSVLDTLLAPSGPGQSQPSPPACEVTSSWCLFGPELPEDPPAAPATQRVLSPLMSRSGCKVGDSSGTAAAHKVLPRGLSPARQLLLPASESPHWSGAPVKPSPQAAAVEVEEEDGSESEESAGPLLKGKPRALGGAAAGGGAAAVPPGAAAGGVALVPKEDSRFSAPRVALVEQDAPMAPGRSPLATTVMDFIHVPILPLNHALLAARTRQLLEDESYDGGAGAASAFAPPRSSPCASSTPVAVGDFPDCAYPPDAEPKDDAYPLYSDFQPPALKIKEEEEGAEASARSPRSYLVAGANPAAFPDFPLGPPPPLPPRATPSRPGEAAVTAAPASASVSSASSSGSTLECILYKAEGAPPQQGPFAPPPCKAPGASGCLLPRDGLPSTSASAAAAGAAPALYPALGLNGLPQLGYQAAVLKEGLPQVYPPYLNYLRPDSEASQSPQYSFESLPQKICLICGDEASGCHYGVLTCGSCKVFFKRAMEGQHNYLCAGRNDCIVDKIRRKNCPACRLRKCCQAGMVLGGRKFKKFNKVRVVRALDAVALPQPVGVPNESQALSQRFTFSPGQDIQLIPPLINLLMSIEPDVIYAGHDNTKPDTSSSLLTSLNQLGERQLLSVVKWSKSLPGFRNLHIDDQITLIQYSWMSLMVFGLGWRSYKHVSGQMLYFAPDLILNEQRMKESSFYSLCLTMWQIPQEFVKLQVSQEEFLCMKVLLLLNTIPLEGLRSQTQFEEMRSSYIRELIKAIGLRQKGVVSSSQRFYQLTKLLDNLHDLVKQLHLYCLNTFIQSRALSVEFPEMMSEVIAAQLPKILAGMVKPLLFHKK
The experiment in a line: Cotransfection assay, PR agonist activity in CV-1 cells. The class given is cell-based. Particulars: for PR Agonist CV-1 Cells Efficacy (%): MTV-LUC reporter, percent maximal response relative to progesterone.
Description: (§1) All the cotransfection experiments were carried out in 96-well plates by automation (Beckman Biomomek automated workstation).

Assay [2] deals with T1, hPR. The experiment in a line: Cotransfection assay, PR antagonist activity in CV-1 cells. It counts as cell-based. Particulars: for IC50: antagonist potency IC50; for PR Antagonist CV-1 Cells Efficacy (%): percent maximal response relative to reference antagonist.
Description: as §1
The target of assay [3] is T2, hPR-A (Homo sapiens, UniProt P06401).
T2 sequence (P06401 1-769 isoform P06401-2): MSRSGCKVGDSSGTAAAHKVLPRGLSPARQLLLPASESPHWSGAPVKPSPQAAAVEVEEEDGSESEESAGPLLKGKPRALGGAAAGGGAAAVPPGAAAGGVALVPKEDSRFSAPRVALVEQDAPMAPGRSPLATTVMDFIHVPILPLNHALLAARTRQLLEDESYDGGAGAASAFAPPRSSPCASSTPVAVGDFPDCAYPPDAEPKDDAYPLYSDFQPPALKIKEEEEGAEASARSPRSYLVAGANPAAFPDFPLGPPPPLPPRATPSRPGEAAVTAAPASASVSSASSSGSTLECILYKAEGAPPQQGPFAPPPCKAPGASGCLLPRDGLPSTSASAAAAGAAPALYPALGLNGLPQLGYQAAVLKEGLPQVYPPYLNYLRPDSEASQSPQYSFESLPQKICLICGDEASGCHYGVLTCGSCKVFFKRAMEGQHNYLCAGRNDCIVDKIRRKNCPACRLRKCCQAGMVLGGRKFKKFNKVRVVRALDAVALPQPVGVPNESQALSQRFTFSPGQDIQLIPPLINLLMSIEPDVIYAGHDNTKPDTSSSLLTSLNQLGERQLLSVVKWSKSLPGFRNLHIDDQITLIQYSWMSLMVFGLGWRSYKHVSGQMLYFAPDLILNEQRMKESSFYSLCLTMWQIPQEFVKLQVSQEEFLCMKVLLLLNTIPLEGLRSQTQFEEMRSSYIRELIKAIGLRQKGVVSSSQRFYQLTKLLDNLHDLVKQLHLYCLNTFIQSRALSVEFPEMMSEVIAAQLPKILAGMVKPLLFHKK
Description: Receptor competitive binding assay.

For assay [4], the system named is immature rabbits. Description: McPhail (Clauberg) assay of progestational activity. Particulars: minimum active dose; estradiol-primed immature rabbits, uterine glandular changes. The class given is in vivo, rabbit. Here is the method: The in vivo activity of selected hPR modulator compounds of the present invention were evaluated utilizing the McPhail assay, according to the following illustrative Examples. The Clauberg or McPhail assay is a classic assay utilizing rabbits to measure progestational activity. […] This is followed by treatment with a progestin, which causes a large change in the glandular content of the uterus. It is this change in the glandular component, which is a measure of the progestational activity of a progestin. The measurement of these glandular changes are carried out histologically using stained sections of the uterus. The in vivo potency of the progestins is presented as the minimum active dose (MAD) in mg/kg.

Setting [5] is: CV-1 cells, agonist potency EC50, read-out: PR Agonist CV-1 Cells Potency.
The mark [6] stands for this setting: Table 2, repeats PR agonist potency of Table 1, read-out: EC50.
Setting [7] is: Table 2, repeats PR binding Ki of Table 1, read-out: ki.

Read-outs that look alike come from different tables or passages of the source.

Take `CC1=CC(C2Oc3ccc(F)cc3-c3ccc4c(c32)C(C)=CC(C)(C)N4)CCC1` (racemic) [Compound 24, (±)-(5l,1′l)-5-(3-methyl-2-cyclohexenyl)-9-fluoro-1,2-dihydro-2,2,4-trimethyl-5H-chromeno[3,4-f]quinoline]: the “PR Agonist CV-1 Cells Efficacy (%)” value in assay [1] (CV-1 cells) was 168%. Further, the EC50 in assay [1] (setting [5]) and in assay [1] (setting [6]) was 3.6 nM throughout. For the same compound, the concentration for half-maximal inhibition (IC50) in assay [2] was greater than 10000 nM. The “PR Antagonist CV-1 Cells Efficacy (%)” value in assay [2] is “na (na = not active (i.e. efficacy of <20 and potency of >10,000))”. In addition, the inhibition constant Ki in assay [3] (setting [7]) came to 6.4 nM; in assay [3] (hPR-A, read-out: PR Binding Ki) it was 6.4 nM. Moreover, the “MAD” value in assay [4] is reported as 0.25 mg/kg.
Consider `CC1=C[C@H]([C@H]2Oc3c(F)cc(F)cc3-c3ccc4c(c32)C(C)=CC(C)(C)N4)CCC1` (racemic) [Compound 34, (±)-(5l,1′l)-5-(3-methyl-2-cyclohexenyl)-7,9-difluoro-1,2-dihydro-2,2,4-trimethyl-5H-chromeno[3,4-f]quinoline], for which, in assay [1] (CV-1 cells), the “PR Agonist CV-1 Cells Efficacy (%)” value is recorded as 164%. Also, the “PR Antagonist CV-1 Cells Efficacy (%)” value in assay [2] was “na (na = not active (i.e. efficacy of <20 and potency of >10,000))”. Also, the “MAD” value in assay [4] was found to be 0.25 mg/kg.
Regarding `CC1=CC(C)(C)Nc2ccc3c(c21)C(C1CCC(C)=C1C)Oc1c(F)cc(F)cc1-3` (racemic) [Compound 71, (±)-(5l,1′l)-5-(2,3-dimethyl-2-cyclopentenyl)-7,9-difluoro-1,2-dihydro-2,2,4-trimethyl-5H-chromeno[3,4-f]quinoline], the “PR Agonist CV-1 Cells Efficacy (%)” value in assay [1] (CV-1 cells) is 139%. Further, the EC50 in assay [1] (setting [5]) and in assay [1] (setting [6]) was 3.4 nM in each case. This compound came in with a half-inhibitory concentration (IC50) in assay [2] greater than 10000 nM. Besides, the “PR Antagonist CV-1 Cells Efficacy (%)” value in assay [2] was “na (na = not active (i.e. efficacy of <20 and potency of >10,000))”. The inhibitory constant (Ki) was 3.9 nM in assay [3] (setting [7]) and 3.9 nM in assay [3] (hPR-A, read-out: PR Binding Ki). Besides, in assay [4], the “MAD” value stood at 0.25 mg/kg.
Take `CC1=CC(C2Oc3c(F)cc(F)cc3-c3ccc4c(c32)C(C)=CC(C)(C)N4)CCC1` (single isomer, unassigned; (-)) [Compound 38, (−)-(5l,1′l)-5-(3-methyl-2-cyclohexenyl)-7,9-difluoro-1,2-dihydro-2,2,4-trimethyl-5H-chromeno[3,4-f]quinoline]: the “PR Agonist CV-1 Cells Efficacy (%)” value in assay [1] (CV-1 cells) was found to be 166%. The “PR Antagonist CV-1 Cells Efficacy (%)” value in assay [2] was “na (na = not active (i.e. efficacy of <20 and potency of >10,000))”. Moreover, the “MAD” value in assay [4] stood at 0.10 mg/kg.

The term IC50 denotes the concentration that inhibits the measured activity by half. A low value points to higher potency. Broadly, the Ki is a dissociation constant, usually derived from enzyme kinetics or from competition with a known ligand.

These data come from patent US7071205B2 (Ligand Pharmaceuticals Incorporated, priority 2002, dated 2006).
